Measured values reported in PubChem BioAssay (NCI).
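Results reflect a 48-hour exposure of cells in 96-well plates to compound at five concentrations. The concentration for full growth arrest is given as TGI.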

Assays:
Assay in all cases: NCI-60 cell line screen, 48 h
OVCAR-4 ovarian = test system: OVCAR-4 ovarian
KM20L2 colon = test system: KM20L2 colon
SF-268 CNS = test system: SF-268 CNS
DLD-1 colon = test system: DLD-1 colon
HL-60(TB) leukemia = test system: HL-60(TB) leukemia
UACC-257 melanoma = test system: UACC-257 melanoma
UO-31 renal = test system: UO-31 renal
A549 NSCLC = test system: A549 NSCLC
DMS 273 small cell lung = test system: DMS 273 small cell lung
HOP-18 NSCLC = test system: HOP-18 NSCLC
HT29 colon = test system: HT29 colon
HCT-15 colon = test system: HCT-15 colon
SK-OV-3 ovarian = test system: SK-OV-3 ovarian
SF-295 CNS = test system: SF-295 CNS
NCI-H522 lung = test system: NCI-H522 lung
OVCAR-3 ovarian = test system: OVCAR-3 ovarian
K-562 leukemia = test system: K-562 leukemia
SNB-75 CNS = test system: SNB-75 CNS
IGROV1 ovarian = test system: IGROV1 ovarian
M19-MEL melanoma = test system: M19-MEL melanoma
OVCAR-5 ovarian = test system: OVCAR-5 ovarian
SK-MEL-2 melanoma = test system: SK-MEL-2 melanoma
KM12 colon = test system: KM12 colon
EKVX NSCLC = test system: EKVX NSCLC
NCI-H226 lung = test system: NCI-H226 lung
CAKI-1 renal = test system: CAKI-1 renal
HCC-2998 colon = test system: HCC-2998 colon
LXFL 529 NSCLC = test system: LXFL 529 NSCLC
MALME-3M melanoma = test system: MALME-3M melanoma
DMS 114 small cell lung = test system: DMS 114 small cell lung
RXF 393 renal = test system: RXF 393 renal
LOX IMVI melanoma = test system: LOX IMVI melanoma
M14 melanoma = test system: M14 melanoma
SW-620 colon = test system: SW-620 colon
HCT-116 colon = test system: HCT-116 colon
SK-MEL-5 melanoma = test system: SK-MEL-5 melanoma
NCI-H23 lung = test system: NCI-H23 lung
786-0 renal = test system: 786-0 renal
MOLT-4 leukemia = test system: MOLT-4 leukemia
NCI-H460 lung = test system: NCI-H460 lung
COLO 205 colon = test system: COLO 205 colon
SNB-19 CNS = test system: SNB-19 CNS
CCRF-CEM leukemia = test system: CCRF-CEM leukemia
SK-MEL-28 melanoma = test system: SK-MEL-28 melanoma
HOP-62 NSCLC = test system: HOP-62 NSCLC
RPMI-8226 leukemia = test system: RPMI-8226 leukemia
SN12C renal = test system: SN12C renal
TK-10 renal = test system: TK-10 renal
U251 CNS = test system: U251 CNS
OVCAR-8 ovarian = test system: OVCAR-8 ovarian
UACC-62 melanoma = test system: UACC-62 melanoma
ACHN renal = test system: ACHN renal
SF-539 CNS = test system: SF-539 CNS
A498 renal = test system: A498 renal
SR leukemia = test system: SR leukemia

## COc1ccc2nc3cc(Cl)ccc3c(NCCCN(CCCl)CCCl)c2c1
OVCAR-4 ovarian
  TGI: 232 nM
KM20L2 colon
  TGI: > 100 µM
SF-268 CNS
  TGI: 300 nM
DLD-1 colon
  TGI: > 100 µM
HL-60(TB) leukemia
  TGI: 13.5 nM
UACC-257 melanoma
  TGI: > 100 µM
UO-31 renal
  TGI: 1020 nM
A549 NSCLC
  TGI: 664 nM
DMS 273 small cell lung
  TGI: 1030 nM
HOP-18 NSCLC
  TGI: 9.4 µM
HT29 colon
  TGI: 333 nM
HCT-15 colon
  TGI: 1130 nM
SK-OV-3 ovarian
  TGI: 1120 nM
SF-295 CNS
  TGI: 505 nM
NCI-H522 lung
  TGI: 163 nM
OVCAR-3 ovarian
  TGI: 295 nM
K-562 leukemia
  TGI: 154 nM
SNB-75 CNS
  TGI: 407 nM
IGROV1 ovarian
  TGI: 479 nM
M19-MEL melanoma
  TGI: 846 nM
OVCAR-5 ovarian
  TGI: 310 nM
SK-MEL-2 melanoma
  TGI: 437 nM
KM12 colon
  TGI: 395 nM
EKVX NSCLC
  TGI: 539 nM
NCI-H226 lung
  TGI: 311 nM
CAKI-1 renal
  TGI: 123 nM

## O=C1CC[C@@H](S(=O)(=O)c2ccccc2)[C@@H](/C=C/c2ccccc2)O1
HCC-2998 colon
  TGI: > 100 µM
OVCAR-4 ovarian
  TGI: > 100000 nM
LXFL 529 NSCLC
  TGI: > 100 µM
MALME-3M melanoma
  TGI: > 100 µM
KM20L2 colon
  TGI: > 100 µM
DMS 114 small cell lung
  TGI: > 100 µM
RXF 393 renal
  TGI: > 100 µM
LOX IMVI melanoma
  TGI: > 100 µM
HL-60(TB) leukemia
  TGI: > 100000 nM
UACC-257 melanoma
  TGI: > 100 µM
UO-31 renal
  TGI: > 100000 nM
M14 melanoma
  TGI: > 100 µM
SW-620 colon
  TGI: > 100 µM
A549 NSCLC
  TGI: > 100000 nM
HCT-116 colon
  TGI: > 100 µM
SK-MEL-5 melanoma
  TGI: > 100 µM
NCI-H23 lung
  TGI: > 100 µM
786-0 renal
  TGI: > 100 µM
HOP-18 NSCLC
  TGI: > 100 µM
HT29 colon
  TGI: > 100000 nM
MOLT-4 leukemia
  TGI: > 100 µM
NCI-H460 lung
  TGI: > 100 µM
COLO 205 colon
  TGI: > 100 µM
HCT-15 colon
  TGI: > 100000 nM
SK-OV-3 ovarian
  TGI: > 100000 nM
SNB-19 CNS
  TGI: > 100 µM
SF-295 CNS
  TGI: > 100000 nM
CCRF-CEM leukemia
  TGI: > 100 µM
SK-MEL-28 melanoma
  TGI: > 100 µM
HOP-62 NSCLC
  TGI: > 100 µM
NCI-H522 lung
  TGI: > 100000 nM
OVCAR-3 ovarian
  TGI: > 100000 nM
K-562 leukemia
  TGI: > 100000 nM
RPMI-8226 leukemia
  TGI: > 100 µM
SN12C renal
  TGI: > 100 µM
SNB-75 CNS
  TGI: > 100000 nM
IGROV1 ovarian
  TGI: > 100000 nM
TK-10 renal
  TGI: > 100 µM
U251 CNS
  TGI: > 100 µM
M19-MEL melanoma
  TGI: > 100000 nM
OVCAR-5 ovarian
  TGI: > 100000 nM
OVCAR-8 ovarian
  TGI: > 100 µM
UACC-62 melanoma
  TGI: > 100 µM
ACHN renal
  TGI: > 100 µM
KM12 colon
  TGI: > 100000 nM
EKVX NSCLC
  TGI: > 100000 nM
NCI-H226 lung
  TGI: > 100000 nM
SF-539 CNS
  TGI: > 100 µM
A498 renal
  TGI: > 100 µM
SR leukemia
  TGI: > 100 µM
